Laboratory results taken from ChEMBL document CHEMBL4138146, “A Schmidt rearrangement-mediated synthesis of novel tetrahydro-benzo[1,4]diazepin-5-ones as potential anticancer and antiprotozoal agents” (Eur J Med Chem, 2017).

Experiments:
Assay type in all cases: functional
CCRF-CEM [1] = experiment: Growth inhibition of human CCRF-CEM cells assessed as cell growth at 10^-8 M incubated for 48 hrs by sulforhodamine B assay relative to control; settings: read-out: Activity
K562 [2] = experiment: Growth inhibition of human K562 cells assessed as cell growth at 10^-8 M incubated for 48 hrs by sulforhodamine B assay relative to control; settings: K562, 48 h, read-out: Activity
SF-268 = experiment: Growth inhibition of human SF268 cells assessed as cell growth at 10^-8 M incubated for 48 hrs by sulforhodamine B assay relative to control; settings: SF-268, 48 h, read-out: Activity
M14 [3] = experiment: Growth inhibition of human M14 cells assessed as cell growth at 10^-8 M incubated for 48 hrs by sulforhodamine B assay relative to control; settings: M14, 48 h, read-out: Activity
Hs-578T [4] = experiment: Growth inhibition of human Hs 578T cells assessed as cell growth at 10^-8 M incubated for 48 hrs by sulforhodamine B assay relative to control; settings: read-out: Activity
SNB-19 = experiment: Growth inhibition of human SNB19 cells assessed as cell growth at 10^-7 M incubated for 48 hrs by sulforhodamine B assay relative to control; settings: SNB-19, 48 h, read-out: Activity
U-251 = experiment: Growth inhibition of human U251 cells assessed as cell growth at 10^-7 M incubated for 48 hrs by sulforhodamine B assay relative to control; settings: U-251, 48 h, read-out: Activity
SK-MEL-5 = experiment: Growth inhibition of human SK-MEL-5 cells assessed as cell growth at 10^-7 M incubated for 48 hrs by sulforhodamine B assay relative to control; settings: SK-MEL-5, 48 h, read-out: Activity
A498 = experiment: Growth inhibition of human A498 cells assessed as cell growth at 10^-7 M incubated for 48 hrs by sulforhodamine B assay relative to control; settings: A498, 48 h, read-out: Activity
CCRF-CEM [5] = experiment: Growth inhibition of human CCRF-CEM cells assessed as cell growth at 10^-6 M incubated for 48 hrs by sulforhodamine B assay relative to control; settings: read-out: Activity
K562 [6] = experiment: Growth inhibition of human K562 cells assessed as cell growth at 10^-6 M incubated for 48 hrs by sulforhodamine B assay relative to control; settings: K562, 48 h, read-out: Activity
NCI-H522 = experiment: Growth inhibition of human NCI-H522 cells assessed as cell growth at 10^-6 M incubated for 48 hrs by sulforhodamine B assay relative to control; settings: NCI-H522, 48 h, read-out: Activity
COLO 205 = experiment: Growth inhibition of human COLO205 cells assessed as cell growth at 10^-6 M incubated for 48 hrs by sulforhodamine B assay relative to control; settings: COLO 205, 48 h, read-out: Activity
OVCAR-3 = experiment: Growth inhibition of human OVCAR3 cells assessed as cell growth at 10^-6 M incubated for 48 hrs by sulforhodamine B assay relative to control; settings: OVCAR-3, 48 h, read-out: Activity
OVCAR-5 = experiment: Growth inhibition of human OVCAR5 cells assessed as cell growth at 10^-6 M incubated for 48 hrs by sulforhodamine B assay relative to control; settings: OVCAR-5, 48 h, read-out: Activity
MOLT-4 = experiment: Growth inhibition of human MOLT4 cells assessed as cell growth at 10^-5 M incubated for 48 hrs by sulforhodamine B assay relative to control; settings: MOLT-4, 48 h, read-out: Activity
A549 = experiment: Growth inhibition of human A549/ATCC cells assessed as cell growth at 10^-5 M incubated for 48 hrs by sulforhodamine B assay relative to control; settings: A549, 48 h, read-out: Activity
HCT-116 [7] = experiment: Growth inhibition of human HCT116 cells assessed as cell growth at 10^-5 M incubated for 48 hrs by sulforhodamine B assay relative to control; settings: HCT-116, 48 h, read-out: Activity
HCT-15 = experiment: Growth inhibition of human HCT15 cells assessed as cell growth at 10^-5 M incubated for 48 hrs by sulforhodamine B assay relative to control; settings: HCT-15, 48 h, read-out: Activity
SW-620 = experiment: Growth inhibition of human SW620 cells assessed as cell growth at 10^-5 M incubated for 48 hrs by sulforhodamine B assay relative to control; settings: SW-620, 48 h, read-out: Activity
UACC-257 = experiment: Growth inhibition of human UACC257 cells assessed as cell growth at 10^-5 M incubated for 48 hrs by sulforhodamine B assay relative to control; settings: UACC-257, 48 h, read-out: Activity
OVCAR-8 = experiment: Growth inhibition of human OVCAR8 cells assessed as cell growth at 10^-5 M incubated for 48 hrs by sulforhodamine B assay relative to control; settings: OVCAR-8, 48 h, read-out: Activity
NCI/ADR-RES = experiment: Growth inhibition of human NCI/ADR-RES cells assessed as cell growth at 10^-5 M incubated for 48 hrs by sulforhodamine B assay relative to control; settings: read-out: Activity
CAKI-1 = experiment: Growth inhibition of human Caki1 cells assessed as cell growth at 10^-5 M incubated for 48 hrs by sulforhodamine B assay relative to control; settings: CAKI-1, 48 h, read-out: Activity
SN12C = experiment: Growth inhibition of human SN12C cells assessed as cell growth at 10^-5 M incubated for 48 hrs by sulforhodamine B assay relative to control; settings: read-out: Activity
Hs-578T [8] = experiment: Growth inhibition of human Hs 578T cells assessed as cell growth at 10^-5 M incubated for 48 hrs by sulforhodamine B assay relative to control; settings: read-out: Activity
MDA-MB-468 [9] = experiment: Growth inhibition of human MDA-MB-468 cells assessed as cell growth at 10^-5 M incubated for 48 hrs by sulforhodamine B assay relative to control; settings: MDA-MB-468, 48 h, read-out: Activity
K562 [10] = experiment: Growth inhibition of human K562 cells assessed as cell growth at 10^-4 M incubated for 48 hrs by sulforhodamine B assay relative to control; settings: K562, 48 h, read-out: Activity
RPMI-8226 = experiment: Growth inhibition of human RPMI8226 cells assessed as cell growth at 10^-4 M incubated for 48 hrs by sulforhodamine B assay relative to control; settings: RPMI-8226, 48 h, read-out: Activity
HCC 2998 = experiment: Growth inhibition of human HCC2998 cells assessed as cell growth at 10^-4 M incubated for 48 hrs by sulforhodamine B assay relative to control; settings: HCC 2998, 48 h, read-out: Activity
HCT-116 [11] = experiment: Growth inhibition of human HCT116 cells assessed as cell growth at 10^-4 M incubated for 48 hrs by sulforhodamine B assay relative to control; settings: HCT-116, 48 h, read-out: Activity
M14 [12] = experiment: Growth inhibition of human M14 cells assessed as cell growth at 10^-4 M incubated for 48 hrs by sulforhodamine B assay relative to control; settings: M14, 48 h, read-out: Activity
Hs-578T [13] = experiment: Growth inhibition of human Hs 578T cells assessed as cell growth at 10^-4 M incubated for 48 hrs by sulforhodamine B assay relative to control; settings: read-out: Activity
MDA-MB-468 [14] = experiment: Growth inhibition of human MDA-MB-468 cells assessed as cell growth at 10^-4 M incubated for 48 hrs by sulforhodamine B assay relative to control; settings: MDA-MB-468, 48 h, read-out: Activity

Compound: CCCCOc1nc2ccccc2cc1C1CNC(=O)c2ccccc2N1 (centres undefined)
- growth at 0.01 µM (CCRF-CEM [1]): 98%
- growth at 0.01 µM (K562 [2]): 102%
- growth at 0.01 µM (SF-268): 95%
- growth at 0.01 µM (M14 [3]): 96%
- growth at 0.01 µM (Hs-578T [4]): 89%
- growth at 0.1 µM (SNB-19): 95%
- growth at 0.1 µM (U-251): 96%
- growth at 0.1 µM (SK-MEL-5): 100%
- growth at 0.1 µM (A498): 62%
- growth at 1 µM (CCRF-CEM [5]): 85%
- growth at 1 µM (K562 [6]): 46%
- growth at 1 µM (NCI-H522): 65%
- growth at 1 µM (COLO 205): 98%
- growth at 1 µM (OVCAR-3): 64%
- growth at 1 µM (OVCAR-5): 98%
- growth at 10 µM (MOLT-4): 6%
- growth at 10 µM (A549): 14%
- growth at 10 µM (HCT-116 [7]): -19%
- growth at 10 µM (HCT-15): 3%
- growth at 10 µM (SW-620): 18%
- growth at 10 µM (UACC-257): 48%
- growth at 10 µM (OVCAR-8): 12%
- growth at 10 µM (NCI/ADR-RES): -15%
- growth at 10 µM (CAKI-1): 25%
- growth at 10 µM (SN12C): 19%
- growth at 10 µM (Hs-578T [8]): 28%
- growth at 10 µM (MDA-MB-468 [9]): -10%
- growth at 100 µM (K562 [10]): -25%
- growth at 100 µM (RPMI-8226): -14%
- growth at 100 µM (HCC 2998): -20%
- growth at 100 µM (HCT-116 [11]): -67%
- growth at 100 µM (M14 [12]): -52%
- growth at 100 µM (Hs-578T [13]): -25%
- growth at 100 µM (MDA-MB-468 [14]): -43%
